Measured values from PubChem BioAssay (NCI).
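Five concentrations, 48 hours, 96-well plates. GI50 marks 50% less growth. Definition used: TGI = concentration required for complete inhibition of growth.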

How the values were obtained:
Assay in all cases: inhibition of tumour cell growth, NCI panel, 48 h
K-562 leukemia = system: K-562 leukemia
SF-539 CNS = system: SF-539 CNS
BT-549 breast = system: BT-549 breast
SW-620 colon = system: SW-620 colon
SN12C renal = system: SN12C renal
M14 melanoma = system: M14 melanoma
SK-OV-3 ovarian = system: SK-OV-3 ovarian
NCI-H522 lung = system: NCI-H522 lung
MCF7 breast = system: MCF7 breast
COLO 205 colon = system: COLO 205 colon
HS 578T breast = system: HS 578T breast
SK-MEL-28 melanoma = system: SK-MEL-28 melanoma
UACC-257 melanoma = system: UACC-257 melanoma
OVCAR-5 ovarian = system: OVCAR-5 ovarian
UACC-62 melanoma = system: UACC-62 melanoma
A549 NSCLC = system: A549 NSCLC
OVCAR-3 ovarian = system: OVCAR-3 ovarian
U251 CNS = system: U251 CNS
HCT-15 colon = system: HCT-15 colon
MDA-MB-231 breast = system: MDA-MB-231 breast
T-47D breast = system: T-47D breast
MOLT-4 leukemia = system: MOLT-4 leukemia
SF-268 CNS = system: SF-268 CNS
MDA-MB-435 = system: MDA-MB-435
TK-10 renal = system: TK-10 renal
SNB-75 CNS = system: SNB-75 CNS
PC-3 prostate = system: PC-3 prostate
ACHN renal = system: ACHN renal
SK-MEL-2 melanoma = system: SK-MEL-2 melanoma
LOX IMVI melanoma = system: LOX IMVI melanoma
786-0 renal = system: 786-0 renal
NCI/ADR-RES ovarian = system: NCI/ADR-RES ovarian
HL-60(TB) leukemia = system: HL-60(TB) leukemia
RPMI-8226 leukemia = system: RPMI-8226 leukemia
NCI-H226 lung = system: NCI-H226 lung
HOP-92 NSCLC = system: HOP-92 NSCLC
DU-145 prostate = system: DU-145 prostate
HOP-62 NSCLC = system: HOP-62 NSCLC
SNB-19 CNS = system: SNB-19 CNS
SF-295 CNS = system: SF-295 CNS
RXF 393 renal = system: RXF 393 renal
EKVX NSCLC = system: EKVX NSCLC
OVCAR-4 ovarian = system: OVCAR-4 ovarian
SR leukemia = system: SR leukemia
CAKI-1 renal = system: CAKI-1 renal
CCRF-CEM leukemia = system: CCRF-CEM leukemia
HT29 colon = system: HT29 colon
HCT-116 colon = system: HCT-116 colon
MALME-3M melanoma = system: MALME-3M melanoma
NCI-H460 lung = system: NCI-H460 lung
A498 renal = system: A498 renal
UO-31 renal = system: UO-31 renal
NCI-H23 lung = system: NCI-H23 lung
SK-MEL-5 melanoma = system: SK-MEL-5 melanoma
IGROV1 ovarian = system: IGROV1 ovarian
KM12 colon = system: KM12 colon
OVCAR-8 ovarian = system: OVCAR-8 ovarian
HCC-2998 colon = system: HCC-2998 colon

## O=[N+]([O-])c1cc([N+](=O)[O-])c(NN=C(c2ccc(O)cc2)c2ccc(O)cc2)cc1Cl
K-562 leukemia
  GI50: 4.89 µM
  TGI: > 100 µM
SF-539 CNS
  GI50: 1.75 µM
  TGI: 3.13 µM
BT-549 breast
  GI50: 2.08 µM
  TGI: 4.46 µM
SW-620 colon
  GI50: 0.348 µM
  TGI: 1.22 µM
SN12C renal
  GI50: 1.78 µM
  TGI: 3.36 µM
M14 melanoma
  GI50: 1.83 µM
  TGI: 3.94 µM
SK-OV-3 ovarian
  GI50: 2.04 µM
  TGI: 4.15 µM
NCI-H522 lung
  GI50: 2 µM
  TGI: 4.22 µM
MCF7 breast
  GI50: 1.37 µM
  TGI: 3.3 µM
COLO 205 colon
  GI50: 2.4 µM
  TGI: 5.31 µM
HS 578T breast
  GI50: 0.742 µM
  TGI: 2.04 µM
SK-MEL-28 melanoma
  GI50: 0.685 µM
  TGI: 1.73 µM
UACC-257 melanoma
  GI50: 2.17 µM
  TGI: 3.89 µM
OVCAR-5 ovarian
  GI50: 2.2 µM
  TGI: 4.15 µM
UACC-62 melanoma
  GI50: 1.76 µM
  TGI: 3.28 µM
A549 NSCLC
  GI50: 2.84 µM
  TGI: 6.59 µM
OVCAR-3 ovarian
  GI50: 0.912 µM
  TGI: 2.24 µM
U251 CNS
  GI50: 1.87 µM
  TGI: 3.55 µM
HCT-15 colon
  GI50: 0.407 µM
  TGI: 1520 nM
MDA-MB-231 breast
  GI50: 1.74 µM
  TGI: 3.29 µM
T-47D breast
  GI50: 572 nM
  TGI: 2.12 µM
MOLT-4 leukemia
  GI50: 0.832 µM
  TGI: 3.11 µM
SF-268 CNS
  GI50: 1.7 µM
  TGI: 3.29 µM
MDA-MB-435
  GI50: 1.82 µM
  TGI: 3.6 µM
TK-10 renal
  GI50: 2.26 µM
  TGI: 4.66 µM
SNB-75 CNS
  GI50: 1440 nM
  TGI: 3.08 µM
PC-3 prostate
  GI50: 0.813 µM
  TGI: 2.33 µM
ACHN renal
  GI50: 1.88 µM
  TGI: 3.45 µM
SK-MEL-2 melanoma
  GI50: 3.06 µM
  TGI: 10.6 µM
LOX IMVI melanoma
  GI50: 0.409 µM
  TGI: 1.6 µM
786-0 renal
  GI50: 2.15 µM
  TGI: 4.26 µM
NCI/ADR-RES ovarian
  GI50: 1.89 µM
  TGI: 3.89 µM
HL-60(TB) leukemia
  GI50: 684 nM
  TGI: 2420 nM
RPMI-8226 leukemia
  GI50: 1.98 µM
  TGI: 4.07 µM
NCI-H226 lung
  GI50: 2.01 µM
  TGI: 3.84 µM
HOP-92 NSCLC
  GI50: 463 nM
  TGI: 2.48 µM
DU-145 prostate
  GI50: 1.14 µM
  TGI: 2.64 µM
HOP-62 NSCLC
  GI50: 2.44 µM
  TGI: 4.99 µM
SNB-19 CNS
  GI50: 0.366 µM
  TGI: 2.3 µM
SF-295 CNS
  GI50: 1.84 µM
  TGI: 3.65 µM
RXF 393 renal
  TGI: 0.35 µM
EKVX NSCLC
  GI50: 2.33 µM
  TGI: 5.1 µM
OVCAR-4 ovarian
  GI50: 1.4 µM
  TGI: 2.95 µM
SR leukemia
  GI50: 1.68 µM
CAKI-1 renal
  GI50: 1.7 µM
  TGI: 3.34 µM
CCRF-CEM leukemia
  GI50: 716 nM
  TGI: 2290 nM
HT29 colon
  GI50: 1.54 µM
  TGI: 4.07 µM
HCT-116 colon
  GI50: 1.23 µM
  TGI: 3.11 µM
MALME-3M melanoma
  GI50: 1.97 µM
  TGI: 3.98 µM
NCI-H460 lung
  GI50: 1.92 µM
  TGI: 4 µM
A498 renal
  GI50: 2.02 µM
  TGI: 3.64 µM
UO-31 renal
  GI50: 1.76 µM
  TGI: 3.39 µM
NCI-H23 lung
  GI50: 1.98 µM
  TGI: 4.45 µM
SK-MEL-5 melanoma
  GI50: 1.47 µM
  TGI: 2.91 µM
IGROV1 ovarian
  GI50: 0.449 µM
  TGI: 1.57 µM
KM12 colon
  GI50: 1.83 µM
  TGI: 3.73 µM
OVCAR-8 ovarian
  GI50: 1.79 µM
  TGI: 4.6 µM

## Nc1nc(SCc2ccccc2)nc2[nH]ncc12
K-562 leukemia
  GI50: 14.3 µM
  TGI: > 100 µM
SF-539 CNS
  GI50: 19 µM
  TGI: 41.7 µM
BT-549 breast
  GI50: 17.3 µM
  TGI: 35.1 µM
SW-620 colon
  GI50: 17.9 µM
  TGI: 37.6 µM
SN12C renal
  GI50: 16.9 µM
  TGI: 31.3 µM
M14 melanoma
  GI50: 19.4 µM
  TGI: 34.8 µM
HCC-2998 colon
  GI50: 19.6 µM
  TGI: 34.4 µM
SK-OV-3 ovarian
  GI50: 20 µM
  TGI: 39.1 µM
NCI-H522 lung
  GI50: 17.9 µM
  TGI: 46 µM
MCF7 breast
  GI50: 11.8 µM
  TGI: 26.6 µM
COLO 205 colon
  GI50: 17.1 µM
  TGI: 53.6 µM
HS 578T breast
  GI50: 14.3 µM
  TGI: 34.5 µM
SK-MEL-28 melanoma
  GI50: 17.1 µM
  TGI: 35.9 µM
UACC-257 melanoma
  GI50: 14.6 µM
  TGI: 28.1 µM
OVCAR-5 ovarian
  GI50: 17.6 µM
  TGI: 31.7 µM
UACC-62 melanoma
  GI50: 14.4 µM
  TGI: 27.9 µM
A549 NSCLC
  GI50: 13.6 µM
  TGI: 29.1 µM
OVCAR-3 ovarian
  GI50: 12.6 µM
  TGI: 25.7 µM
U251 CNS
  GI50: 14.9 µM
  TGI: 33.6 µM
HCT-15 colon
  GI50: 20.4 µM
  TGI: > 100000 nM
MDA-MB-231 breast
  GI50: 16.4 µM
  TGI: 31.7 µM
T-47D breast
  GI50: 4150 nM
  TGI: 15.6 µM
MOLT-4 leukemia
  GI50: 25.7 µM
  TGI: > 100 µM
SF-268 CNS
  GI50: 20.5 µM
  TGI: 69.2 µM
MDA-MB-435
  GI50: 15.8 µM
  TGI: 29.9 µM
TK-10 renal
  GI50: 10 µM
  TGI: 21.9 µM
PC-3 prostate
  GI50: 13.7 µM
  TGI: 28.7 µM
ACHN renal
  GI50: 15.5 µM
  TGI: 31.6 µM
SK-MEL-2 melanoma
  GI50: 20.7 µM
  TGI: 48.9 µM
LOX IMVI melanoma
  GI50: 20.8 µM
  TGI: 58.2 µM
786-0 renal
  GI50: 18.7 µM
  TGI: 36 µM
NCI/ADR-RES ovarian
  GI50: 12.3 µM
  TGI: 27.8 µM
RPMI-8226 leukemia
  GI50: 7.76 µM
  TGI: 46 µM
NCI-H226 lung
  GI50: 13.4 µM
  TGI: 27.4 µM
HOP-92 NSCLC
  GI50: 2540 nM
  TGI: 11.7 µM
DU-145 prostate
  GI50: 21.2 µM
  TGI: 55.4 µM
HOP-62 NSCLC
  GI50: 18.7 µM
  TGI: 33.4 µM
SNB-19 CNS
  GI50: 19.8 µM
  TGI: 42.4 µM
SF-295 CNS
  GI50: 14.8 µM
  TGI: 29 µM
RXF 393 renal
  GI50: 3.62 µM
  TGI: 11.5 µM
EKVX NSCLC
  GI50: 16.1 µM
  TGI: 35.8 µM
OVCAR-4 ovarian
  GI50: 12.2 µM
  TGI: 37.1 µM
SR leukemia
  GI50: 18 µM
  TGI: 51.1 µM
CAKI-1 renal
  GI50: 15.2 µM
  TGI: 28.8 µM
HT29 colon
  GI50: 17.1 µM
  TGI: 49.3 µM
HCT-116 colon
  GI50: 13.2 µM
  TGI: 26.3 µM
MALME-3M melanoma
  GI50: 11.7 µM
  TGI: 24.3 µM
NCI-H460 lung
  GI50: 12.3 µM
  TGI: 29.4 µM
A498 renal
  GI50: 10 µM
  TGI: 22.2 µM
UO-31 renal
  GI50: 18 µM
  TGI: 38.4 µM
NCI-H23 lung
  GI50: 12.6 µM
  TGI: 25.8 µM
SK-MEL-5 melanoma
  GI50: 12 µM
  TGI: 25.1 µM
IGROV1 ovarian
  GI50: 19.4 µM
  TGI: 41.8 µM
KM12 colon
  GI50: 14.1 µM
  TGI: 28.4 µM
OVCAR-8 ovarian
  GI50: 25.9 µM
  TGI: > 100 µM
